Results as given in patent US7595327B2, “Beta-sulfonamide hydroxamic acid inhibitors of tace/matrix metalloproteinase” (priority 2005, dated 2009).

What was measured:
recombinant human MMP-8 = recombinant human MMP-8 (Homo sapiens, UniProt P22894); test: In-vitro fluorescence assay of MMP-8 activity
[1] = target: T1, recombinant human catalytic domain of MMP-14 (Homo sapiens, UniProt P50281); test: In-vitro fluorescence assay of MMP-14 activity; format: biochemical
T1 construct: 20 kDa; purchased Chemicon International, Inc. CC1041
Description: The results were analyzed as described for MMP-13 activity, above.

recombinant human MMP-9 = target: T2, recombinant human MMP-9 (Homo sapiens, UniProt P14780); test: In-vitro fluorescence assay of MMP-9 activity; format: biochemical
T2 construct: purchased Calbiochem PF024
Description: The method was similar to that for the determination of MMP-1 activity, described above, with the following differences. Active, recombinant human MMP-7 was purchased from Calbiochem (catalog #444270; expressed in E. coli, 19 kDa). […] The concentration of the substrate stock was spectrophotometrically determined using the extinction coefficient at 410 nm of 7500 M^−1 cm^−1. The assay buffer (pH 7.4) consisted of 50 mM Hepes, 100 mM NaCl, 5 mM CaCI2, and 0.005% Brij-35. […] The plates were then incubated at room temperature for 30 minutes. The enzymatic reactions were initiated by adding substrate to a final concentration of 15 μM and were mixed by pipelting up and down. The final DMSO concentration in the assay was 10% and the final, total assay volume was 200 μl. […].
The method was essentially the same as for the determination of MMP-7 activity, described above, except that the source of enzyme in the assay was recombinant human MMP-9 (83 kDa) was purchased from Calbiochem (catalog #PF024), the final enzyme concentration was 0.5-1.0 nM, and the final substrate concentration was 20 μM.

MMP-13 = MMP-13 (Homo sapiens, UniProt P45452); test: In-vitro fluorescence assay of MMP-13 activity; format: biochemical
Description: See Knight, C. […] […].
The method was essentially the same as for the determination of MMP-1 activity, described above, except that the final concentration of purified MMP in the assay was 0.5 nM, prepared by diluting with the assay buffer.

[2] = test system: TNF-α secretion in Raw 264.7 cells; test: Cell-based assay for inhibition of TNF-α secretion in Raw cells; conditions: Mus musculus, RAW264.7, LPS 100 ng/ml, 4 hr
Method in brief: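 Confluent Raw 264.7 cells were seeded overnight, refed, and pre-incubated 1 hr with compound (0.2% final DMSO), then stimulated with LPS at 100 ng/ml final for 4 hr at 37° C. Supernatant TNF-α measured by ELISA; % inhibition and IC50 by curve fitting.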

T2 sequence (P14780 107-707 limits assumed): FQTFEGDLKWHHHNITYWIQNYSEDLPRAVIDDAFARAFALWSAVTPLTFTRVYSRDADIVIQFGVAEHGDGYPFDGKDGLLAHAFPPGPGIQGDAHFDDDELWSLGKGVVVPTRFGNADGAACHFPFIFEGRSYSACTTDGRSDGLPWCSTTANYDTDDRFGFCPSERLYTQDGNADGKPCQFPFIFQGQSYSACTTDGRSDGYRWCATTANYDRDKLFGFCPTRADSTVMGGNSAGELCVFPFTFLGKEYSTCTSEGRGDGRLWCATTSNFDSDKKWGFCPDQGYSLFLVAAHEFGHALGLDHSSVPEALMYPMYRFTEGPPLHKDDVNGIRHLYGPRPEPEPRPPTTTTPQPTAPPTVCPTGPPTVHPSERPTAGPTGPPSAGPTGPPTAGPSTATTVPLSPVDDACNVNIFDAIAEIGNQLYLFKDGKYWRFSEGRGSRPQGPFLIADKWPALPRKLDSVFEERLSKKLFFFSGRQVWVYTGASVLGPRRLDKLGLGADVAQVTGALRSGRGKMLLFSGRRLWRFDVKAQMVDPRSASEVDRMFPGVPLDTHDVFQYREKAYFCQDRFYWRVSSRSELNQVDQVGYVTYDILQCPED
Sequence of recombinant human MMP-8 (P22894 101-467): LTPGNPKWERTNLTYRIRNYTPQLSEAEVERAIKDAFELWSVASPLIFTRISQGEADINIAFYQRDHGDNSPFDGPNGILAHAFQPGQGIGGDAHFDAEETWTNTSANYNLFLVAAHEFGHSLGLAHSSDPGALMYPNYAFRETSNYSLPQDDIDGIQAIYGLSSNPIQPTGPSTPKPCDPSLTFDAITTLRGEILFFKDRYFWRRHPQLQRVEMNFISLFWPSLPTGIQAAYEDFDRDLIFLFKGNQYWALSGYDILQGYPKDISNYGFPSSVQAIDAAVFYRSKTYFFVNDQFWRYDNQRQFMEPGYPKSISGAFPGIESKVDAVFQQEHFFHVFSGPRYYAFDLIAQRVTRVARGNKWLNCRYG

SMILES: CCNC(=O)N1C[C@H](C(=O)NO)[C@H](NS(=O)(=O)c2ccc(OCc3cc(C)nc4ccccc34)cc2)C1 (relative stereo) [Example 23, cis-1-Ethyl-N-hydroxy-4-[({4-[(2-methylquinolin-4-yl)methoxy]phenyl}sulfonyl)amino]pyrrolidine-1,3-dicarboxamide]
- IC50 (recombinant human MMP-8): > 16.7 µM
- IC50 [1]: > 16.7 µM
- IC50 (recombinant human MMP-9): > 16.7 µM
- IC50 (MMP-13): > 16.7 µM
- IC50 [2]: 0.051 µM

SMILES: Cc1cc(COc2ccc(S(=O)(=O)N[C@@H]3CCC[C@@H]3C(=O)NO)cc2)c2ccccc2n1 [Example 13, (1S,2R)-N-Hydroxy-2-[({4-[(2-methylquinolin-4-yl)methoxy]phenyl}sulfonyl)amino]cyclopentanecarboxamide]
- IC50 (recombinant human MMP-8): > 16.7 µM
- IC50 [1]: > 16.7 µM
- IC50 (recombinant human MMP-9): > 16.7 µM
- IC50 (MMP-13): > 10 µM
- IC50 [2]: 0.009 µM

SMILES: Cc1cc(COc2ccc(S(=O)(=O)N[C@H]3COC[C@H]3C(=O)NO)cc2)c2ccccc2n1 (stereo in doubt) [Example 26, (3S,4R)-4-[4-(2-Methyl-quinolin-4-ylmethoxy)-benzenesulfonylamino]-tetrahydro-furan-3-carboxylic acid hydroxyamide]
- IC50 (recombinant human MMP-8): > 16.7 µM
- IC50 [1]: > 16.7 µM
- IC50 (recombinant human MMP-9): > 16.7 µM
- IC50 (MMP-13): > 16.7 µM
- IC50 [2]: 0.012 µM

SMILES: Cc1cc(COc2ccc(S(=O)(=O)N[C@@H]3CN(C(=O)NC(C)(C)C)CC[C@@H]3C(=O)NO)cc2)c2ccccc2n1 [Example 35, 3-[4-(2-Methyl-quinolin4-ylmethoxy)-benzenesulfonylamino]-piperidine-1,4-dicarboxylic acid 1-tert-butylamide 4-hydroxyamide]
- IC50 (recombinant human MMP-8): > 16.7 µM
- IC50 [1]: > 16.7 µM
- IC50 (recombinant human MMP-9): > 16.7 µM
- IC50 (MMP-13): > 16.7 µM
- IC50 [2]: 0.058 µM

SMILES: Cc1cc(COc2ccc(S(=O)(=O)N[C@@H]3CN(C=O)C[C@@H]3C(=O)NO)cc2)c2ccccc2n1 (relative stereo) [Example 20, cis-1-Formyl-N-hydroxy-4-[({4-[(2-methylquinolin-4-yl)methoxy]phenyl}sulfonyl)amino]pyrrolidine-3-carboxamide]
- IC50 (recombinant human MMP-8): > 16.7 µM
- IC50 [1]: > 16.7 µM
- IC50 (recombinant human MMP-9): > 16.7 µM
- IC50 (MMP-13): 10.2 µM
- IC50 [2]: 0.02 µM

SMILES: Cc1cc(COc2ccc(S(=O)(=O)N[C@@H]3CN(S(C)(=O)=O)C[C@@H]3C(=O)NO)cc2)c2ccccc2n1 (relative stereo) [Example 17, cis-N-Hydroxy-4-[({4-[(2-methylquinolin-4-yl)methoxy]phenyl}sulfonyl)amino]-1-(methylsulfonyl) pyrrolidine-3-carboxamide]
- IC50 (recombinant human MMP-8): > 16.7 µM
- IC50 [1]: > 16.7 µM
- IC50 (recombinant human MMP-9): > 16.7 µM
- IC50 (MMP-13): > 10 µM
- IC50 [2]: 0.024 µM
